From patent US20250064061A1, “METHOD FOR CONTROLLING NOXIOUS ARTHROPODS” (SUMITOMO CHEMICAL COMPANY, LIMITED, priority 2021, published 2025)

Columns and labels:
[1] = tested on: strain of German cockroaches that is susceptible to insecticides; experiment: Topical application test on male adult German cockroach, insecticide-susceptible strain; format: in vivo; settings: 1 μL acetone solution applied to ventral surface of thorax of male adult; mortality after 4 days; Probit method
Protocol: (§1) An acetone solution comprising a prescribed concentration of each of permethrin, deltamethrin, fipronil, indoxacarb, fluxametamide, broflanilide, nicofluprole, cyproflanilide, or isocycloseram was prepared, and 1 μL of the acetone solution was applied to a ventral surface of thorax of a male adult of German cockroach. Two strains of German cockroaches, i.e., the strain of German cockroaches that is susceptible to insecticides and the strain of German cockroaches that is resistant to multiple insecticides, were used. The strain of German cockroaches that is resistant to multiple insecticides is highly resistant to pyrethroid compounds, phenylpyrazole compounds, and oxadiazine compounds. As the resistance mechanism, the strain has the L993F mutation of voltage-dependent sodium channel resulting in pyrethroid resistance, the A302S mutation of GABAergic chloride ion channel resulting in dieldrin resistance, and enhanced metabolic detoxification activities. The application concentrations were three or more concentrations resulting in 0 to 100% of mortality of insects (comprising one or more concentrations resulting in less than 50% mortality of insects, and one or more concentrations resulting in more than 50% mortality of insects), and the number of test insects per concentration was ten in duplicate. After 4 days, the number of dead German cockroach(es) was investigated, and LD50 value was calculated by the Probit method. The mortalities of insects of 0% and 100% were corrected by the method of Miller and Tainter represented by the following formula (1), and corrected mortalities of insects were used when LD50 values were calculated. The resistance ratio was calculated according to the following formula (2) by using the obtained LD50 values. In this test, a dead insect refers to an insect in which the action was completely stopped.

[2] = tested on: strain of German cockroaches that is resistant to multiple insecticides; experiment: Topical application test on male adult German cockroach, multiple-insecticide-resistant strain; format: in vivo; settings: for LD50 Resistant: 1 μL acetone solution applied to ventral surface of thorax of male adult, mortality after 4 days, Probit method, strain with L993F sodium channel and A302S GABAergic chloride channel mutations and enhanced metabolic detoxification; for Resistance ratio: calculated by formula (2) from the LD50 values of the resistant and susceptible strains; for Control of harmful arthropods showing high resistance to permethrin, deltamethrin, fipronil, indoxacarb and fluxametamide: conclusion drawn from Table 1
Protocol: as §1

SMILES	LD50 Susceptible [1]	LD50 Resistant [2]	Resistance ratio [2]	Control of harmful arthropods showing high resistance to permethrin, deltamethrin, fipronil, indoxacarb and fluxametamide [2]
CN(C(=O)c1ccccc1)c1cccc(C(=O)Nc2c(Br)cc(C(F)(C(F)(F)F)C(F)(F)F)cc2C(F)(F)F)c1F [Broflanilide, broflanilide]	0.0093 μg/insect	0.021 μg/insect	2.3	can effectively control
O=C(Nc1c(Br)cc(C(F)(C(F)(F)F)C(F)(F)F)cc1C(F)(F)F)c1cccc(N(CC2CC2)C(=O)c2ccc(F)cc2)c1F [Cyproflanilide, cyproflanilide]	0.028 μg/insect	0.035 μg/insect	1.2	can effectively control
CC1(C)[C@H](C(=O)O[C@H](C#N)c2cccc(Oc3ccccc3)c2)[C@@H]1C=C(Br)Br [Deltamethrin, deltamethrin]	0.016 μg/insect	0.68 μg/insect	43	–
N#Cc1nn(-c2c(Cl)cc(C(F)(F)F)cc2Cl)c(N)c1[S+]([O-])C(F)(F)F (stereo not shown) [Fipronil, fipronil]	0.0034 μg/insect	0.14 μg/insect	41	–
CON=CNC(=O)c1ccc(C2=NOC(c3cc(Cl)cc(Cl)c3)(C(F)(F)F)C2)cc1C (stereo not shown) [Fluxametamide, fluxametamide]	0.059 μg/insect	2.7 μg/insect	46	–
COC(=O)N(C(=O)N1CO[C@@]2(C(=O)OC)Cc3cc(Cl)ccc3C2=N1)c1ccc(OC(F)(F)F)cc1 [Indoxacarb, indoxacarb]	0.25 μg/insect	>50 μg/insect	>200	–
CCN1OCC(NC(=O)c2ccc(C3=NOC(c4cc(Cl)c(F)c(Cl)c4)(C(F)(F)F)C3)cc2C)C1=O (stereo not shown) [Isocycloseram, isocycloseram]	0.059 μg/insect	0.10 μg/insect	1.7	can effectively control
CN(C(=O)c1cc(-c2cnn(-c3c(Cl)cc(C(F)(C(F)(F)F)C(F)(F)F)cc3Cl)c2)cnc1Cl)C1CC1 [Nicofluprole, nicofluprole]	0.0027 μg/insect	0.0065 μg/insect	2.4	can effectively control
CC1(C)C(C=C(Cl)Cl)C1C(=O)OCc1cccc(Oc2ccccc2)c1 (stereo not shown) [Permethrin, permethrin]	0.28 μg/insect	>50 μg/insect	>180	–
